This is an account of results in ChEMBL document CHEMBL4823278, “Metal binding 6-arylthio-3-hydroxypyrimidine-2,4-diones inhibited human cytomegalovirus by targeting the pUL89 endonuclease of the terminase complex” (Eur J Med Chem, 2021).

Each structure is given as a SMILES string.

Series [1] in a line: Cytotoxicity against human HEL 299 cells assessed as cell viability at 10 uM incubated for 168 hrs by MTS-based tetrazolium reduction assay relative to control. The following applies: HEL 299 cells, read-out: Activity. In general terms: Formazan colour is commonly taken as a measure of viable cells.
Another series has as its system Human betaherpesvirus 5. Type of series: functional. The conditions noted are these: Human betaherpesvirus 5, HEL 299, time 168 hrs.
The target in series [2] is T1, Tripartite terminase subunit 3 (Human betaherpesvirus 5) (UniProt P16732).
T1 sequence (whole entry): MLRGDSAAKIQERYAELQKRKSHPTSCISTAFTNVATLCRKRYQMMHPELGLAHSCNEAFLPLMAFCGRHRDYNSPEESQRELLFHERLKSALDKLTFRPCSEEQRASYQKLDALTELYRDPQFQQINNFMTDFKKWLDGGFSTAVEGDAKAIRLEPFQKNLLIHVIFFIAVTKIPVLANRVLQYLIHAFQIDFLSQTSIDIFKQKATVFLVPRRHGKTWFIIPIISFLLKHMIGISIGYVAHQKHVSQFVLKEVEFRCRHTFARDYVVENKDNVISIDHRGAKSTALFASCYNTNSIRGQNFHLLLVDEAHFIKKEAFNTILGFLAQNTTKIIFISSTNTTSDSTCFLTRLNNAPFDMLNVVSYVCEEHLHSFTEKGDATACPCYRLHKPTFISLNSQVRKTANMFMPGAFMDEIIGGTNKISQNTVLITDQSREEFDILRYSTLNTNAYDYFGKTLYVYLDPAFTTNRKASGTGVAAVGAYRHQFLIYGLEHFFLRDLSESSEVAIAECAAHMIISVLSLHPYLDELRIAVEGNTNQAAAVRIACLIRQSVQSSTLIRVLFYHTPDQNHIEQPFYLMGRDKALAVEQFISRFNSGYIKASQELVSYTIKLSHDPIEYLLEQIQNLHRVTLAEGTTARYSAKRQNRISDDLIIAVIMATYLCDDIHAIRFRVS
The series can be described thus: Inhibition of human cytomegalovirus pUL89 endonuclease activity using 60 bp dsDNA substrate at 20 uM incubated for 30 mins by ELISA-based biochemical assay relative to control. For orientation: An ELISA detects its analyte on a solid surface through an enzyme-linked reagent.

The term inhibition denotes the relative decrease from the control value, in per cent.

On to `Cn1c(Sc2ccccc2Br)cc(=O)n(O)c1=O`, for which the viability at 168 h, 10 µM in series [1] turned out to be 117%.

For `O=c1cc(Sc2ccc(-c3ccc(Cl)cc3)cc2)[nH]c(=O)n1O`, in the series on Human betaherpesvirus 5, the inhibition at 10 µM came to 82%. In addition, the inhibition in series [2] was found to be 11%. In addition, in series [1], the viability at 168 h, 10 µM came to 102%.

As for `O=c1cc(Sc2ccc(C(F)(F)F)cc2)[nH]c(=O)n1O`, in the series on Human betaherpesvirus 5, the inhibition at 10 µM is -9%. Moreover, in series [2], the inhibition was found to be 16%. In addition, the viability at 168 h, 10 µM in series [1] was 119%.

On to `O=c1cc(Sc2cccc(Br)c2)[nH]c(=O)n1O`, for which, in the series on Human betaherpesvirus 5, the inhibition at 10 µM is -6%. In series [2], the inhibition turned out to be 16%. The viability at 168 h, 10 µM in series [1] was 123%.

With `CCn1c(Sc2ccc(Cl)cc2)cc(=O)n(O)c1=O`, in the series with Human betaherpesvirus 5, the inhibition at 10 µM was found to be 98%. Besides, the inhibition in series [2] was 76%. Also, the viability at 168 h, 10 µM in series [1] turned out to be 40%.

Turning to `O=c1cc(Sc2ccc(-c3ccc(C(F)(F)F)cc3)cc2)[nH]c(=O)n1O`, in the series with Human betaherpesvirus 5, the inhibition at 10 µM is 84%. Besides, the inhibition in series [2] is 12%. In addition, the viability at 168 h, 10 µM in series [1] came to 107%.

As for `CCn1c(Sc2ccccc2Br)cc(=O)n(O)c1=O`, the inhibition at 10 µM in the series with Human betaherpesvirus 5 turned out to be 100%. Also, the inhibition in series [2] was 64%. Besides, the viability at 168 h, 10 µM in series [1] turned out to be 16%.

For the compound `Cn1c(Sc2ccc(C(F)(F)F)cc2)cc(=O)n(O)c1=O`, the inhibition at 10 µM with Human betaherpesvirus 5 came to 50%. For the same compound, in series [1], the viability at 168 h, 10 µM was found to be 107%.

Take `Cn1c(Sc2ccccc2)cc(=O)n(O)c1=O`: in the series with Human betaherpesvirus 5, the inhibition at 10 µM turned out to be 21%. Moreover, the inhibition in series [2] is 65%. For the same compound, the viability at 168 h, 10 µM in series [1] worked out at 115%.

On to `O=c1cc(Sc2cccc(-c3ccc(C(F)(F)F)cc3)c2)[nH]c(=O)n1O`, for which, in the series on Human betaherpesvirus 5, the inhibition at 10 µM turned out to be 70%. The inhibition in series [2] came to 22%. For the same compound, the viability at 168 h, 10 µM in series [1] came to 110%.

`COc1ccc(-c2cccc(Sc3cc(=O)n(O)c(=O)[nH]3)c2)cc1F`: the inhibition at 10 µM in the series on Human betaherpesvirus 5 is -11%. In addition, the inhibition in series [2] was 16%. Besides, in series [1], the viability at 168 h, 10 µM was found to be 106%.

`O=c1cc(Sc2ccc(Br)cc2)[nH]c(=O)n1O`: in the series on Human betaherpesvirus 5, the inhibition at 10 µM is 12%. Also, in series [2], the inhibition is 14%. Also, the viability at 168 h, 10 µM in series [1] was determined as 129%.

Regarding `O=c1cc(Sc2cccc(-c3ccc(Cl)cc3)c2)[nH]c(=O)n1O`, in the series with Human betaherpesvirus 5, the inhibition at 10 µM was 81%. In series [1], the viability at 168 h, 10 µM was determined as 100%.

On to `Cn1c(Sc2cccc(C(F)(F)F)c2)cc(=O)n(O)c1=O`, for which the inhibition at 10 µM in the series on Human betaherpesvirus 5 came out at 68%. Besides, the viability at 168 h, 10 µM in series [1] turned out to be 99%.

In the case of `O=c1cc(Sc2cccc(-c3ccc(F)cc3)c2)[nH]c(=O)n1O`, in the series on Human betaherpesvirus 5, the inhibition at 10 µM stood at 19%. The inhibition in series [2] came out at 10%. In addition, the viability at 168 h, 10 µM in series [1] was 100%.

As for `O=c1cc(Sc2ccccc2)[nH]c(=O)n1O`, the inhibition at 10 µM in the series on Human betaherpesvirus 5 is -16%. Besides, in series [2], the inhibition was 30%. In addition, the viability at 168 h, 10 µM in series [1] worked out at 108%.

As for `O=c1cc(Sc2ccc(-c3ccc(F)cc3)cc2)[nH]c(=O)n1O`, in the series with Human betaherpesvirus 5, the inhibition at 10 µM was 79%. For the same compound, the inhibition in series [2] amounted to 19%. For the same compound, the viability at 168 h, 10 µM in series [1] was 99%.

Take `CCn1c(Sc2cccc(Br)c2)cc(=O)n(O)c1=O`: in the series with Human betaherpesvirus 5, the inhibition at 10 µM is 100%. The inhibition in series [2] was 71%. For the same compound, the viability at 168 h, 10 µM in series [1] is 7%.

`O=c1cc(Sc2cccc(-c3cccc(C(F)(F)F)c3)c2)[nH]c(=O)n1O`: in the series with Human betaherpesvirus 5, the inhibition at 10 µM came to 33%. Further, in series [2], the inhibition was 20%. In addition, the viability at 168 h, 10 µM in series [1] came out at 118%.

For the compound `O=c1cc(Sc2ccc(F)cc2)[nH]c(=O)n1O`, the inhibition at 10 µM in the series with Human betaherpesvirus 5 was -2.3%. The inhibition in series [2] came to 54%. In addition, the viability at 168 h, 10 µM in series [1] came to 118%.

Take `Cn1c(Sc2ccc(Br)cc2)cc(=O)n(O)c1=O`: the inhibition at 10 µM in the series with Human betaherpesvirus 5 worked out at 57%. Besides, the viability at 168 h, 10 µM in series [1] worked out at 113%.

With `O=c1cc(Sc2ccccc2Br)[nH]c(=O)n1O`, the inhibition at 10 µM with Human betaherpesvirus 5 is -14%. For the same compound, in series [2], the inhibition was found to be 21%. In addition, in series [1], the viability at 168 h, 10 µM came out at 101%.

`CCn1c(Sc2ccc(Br)cc2)cc(=O)n(O)c1=O`: the inhibition at 10 µM in the series with Human betaherpesvirus 5 was found to be 100%. Moreover, in series [2], the inhibition is 66%. Besides, the viability at 168 h, 10 µM in series [1] came to 16%.
